# Measured values as given in PubChem BioAssay AID2060896 (Molecular Pharmacology Branch, DTP, NCI, 2025).
# System: 941728-121-R-J1-PDC complex spheroid viability
# Experiment: Anticancer human tumor 941728-121-R-J1-PDC patient-derived lung adenocarcinoma cell line growth inhibition [RAS]
# Details: for IC50: curve of first compound; for viability, T/C: stronger effect = lower value
# Method in brief: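 Tumour cells grown as complex spheroids with HUVEC endothelial cells and mesenchymal stem cells, treated with RAS pathway inhibitor combinations. Each agent spans half-log steps from near clinical Cmax, or 10 microM where Cmax is unknown.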
# [1] = second compound 0.00316 µM, first compound 0.0316 µM
# [2] = second compound 0.00316 µM, first compound 0.1 µM
# [3] = second compound 0.01 µM, first compound 0.0316 µM
# [4] = second compound 0.01 µM, first compound 0.1 µM
# [5] = second compound 0.0316 µM, first compound 0.0316 µM
# [6] = second compound 0.0316 µM, first compound 0.1 µM
# [7] = second compound 0.1 µM, first compound 0.0316 µM
# [8] = second compound 0.1 µM, first compound 0.1 µM
# [9] = second compound 0.316 µM, first compound 0.0316 µM
# [10] = second compound 0.316 µM, first compound 0.1 µM
# [11] = second compound 1 µM, first compound 0.0316 µM
# [12] = second compound 1 µM, first compound 0.1 µM
# 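Note: spheroids exposed to compounds for 7 days before readout.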
# 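Throughout, for viability, T/C: 100% = DMSO vehicle control viability.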
smiles,measurement,setting,value
CC(C)NCC(C(=O)N1CCN(c2ncnc3c2C(C)CC3O)CC1)c1ccc(Cl)cc1 (centres undefined) + C=CC(=O)N1CCN(c2nc(OCC3CCCN3C)nc3c(F)c(-c4nc(N)cc(C)c4C(F)(F)F)c(Cl)cc23)C(C)C1,IC50,second compound 0.00316 µM,< 0.0316 µM
same,IC50,second compound 0.01 µM,< 0.0316 µM
same,IC50,second compound 0.0316 µM,< 0.0316 µM
same,IC50,second compound 0.1 µM,< 0.0316 µM
same,IC50,second compound 0.316 µM,< 0.0316 µM
same,IC50,second compound 1 µM,< 0.0316 µM
same,"viability, T/C",[1],19.3%
same,"viability, T/C",[2],17.8%
same,"viability, T/C","second compound 0.00316 µM, first compound 0.316 µM",16.5%
same,"viability, T/C","second compound 0.00316 µM, first compound 1 µM",22.4%
same,"viability, T/C","second compound 0.00316 µM, first compound 3.16 µM",12.7%
same,"viability, T/C","second compound 0.00316 µM, first compound 10 µM",8.85%
same,"viability, T/C",[3],18%
same,"viability, T/C",[4],21.5%
same,"viability, T/C","second compound 0.01 µM, first compound 0.316 µM",18.3%
same,"viability, T/C","second compound 0.01 µM, first compound 1 µM",14.3%
same,"viability, T/C","second compound 0.01 µM, first compound 3.16 µM",13.1%
same,"viability, T/C","second compound 0.01 µM, first compound 10 µM",7.71%
same,"viability, T/C",[5],26.6%
same,"viability, T/C",[6],17.3%
same,"viability, T/C","second compound 0.0316 µM, first compound 0.316 µM",16.8%
same,"viability, T/C","second compound 0.0316 µM, first compound 1 µM",14.7%
same,"viability, T/C","second compound 0.0316 µM, first compound 3.16 µM",10.8%
same,"viability, T/C","second compound 0.0316 µM, first compound 10 µM",11.1%
same,"viability, T/C",[7],19.6%
same,"viability, T/C",[8],17.1%
same,"viability, T/C","second compound 0.1 µM, first compound 0.316 µM",17.9%
same,"viability, T/C","second compound 0.1 µM, first compound 1 µM",15%
same,"viability, T/C","second compound 0.1 µM, first compound 3.16 µM",10.6%
same,"viability, T/C","second compound 0.1 µM, first compound 10 µM",6.28%
same,"viability, T/C",[9],19.6%
same,"viability, T/C",[10],16.8%
same,"viability, T/C","second compound 0.316 µM, first compound 0.316 µM",15.3%
same,"viability, T/C","second compound 0.316 µM, first compound 1 µM",13.8%
same,"viability, T/C","second compound 0.316 µM, first compound 3.16 µM",13.5%
same,"viability, T/C","second compound 0.316 µM, first compound 10 µM",8.85%
same,"viability, T/C",[11],17.9%
same,"viability, T/C",[12],18.7%
same,"viability, T/C","second compound 1 µM, first compound 0.316 µM",16.8%
same,"viability, T/C","second compound 1 µM, first compound 1 µM",12%
same,"viability, T/C","second compound 1 µM, first compound 3.16 µM",12.3%
same,"viability, T/C","second compound 1 µM, first compound 10 µM",8.38%
CC(C)n1nc(-c2ccc3oc(N)nc3c2)c2c(N)ncnc21 + C=CC(=O)N1CCN(c2nc(OCC3CCCN3C)nc3c(F)c(-c4nc(N)cc(C)c4C(F)(F)F)c(Cl)cc23)C(C)C1,IC50,second compound 0.00316 µM,< 0.000316 µM
same,IC50,second compound 0.01 µM,< 0.000316 µM
same,IC50,second compound 0.0316 µM,< 0.000316 µM
same,IC50,second compound 0.1 µM,< 0.000316 µM
same,IC50,second compound 0.316 µM,< 0.000316 µM
same,IC50,second compound 1 µM,< 0.000316 µM
same,"viability, T/C","second compound 0.00316 µM, first compound 0.000316 µM",19.5%
same,"viability, T/C","second compound 0.00316 µM, first compound 0.001 µM",21.4%
same,"viability, T/C","second compound 0.00316 µM, first compound 0.00316 µM",19.4%
same,"viability, T/C","second compound 0.00316 µM, first compound 0.01 µM",14.4%
same,"viability, T/C",[1],11.6%
same,"viability, T/C",[2],9.02%
same,"viability, T/C","second compound 0.01 µM, first compound 0.000316 µM",19.6%
same,"viability, T/C","second compound 0.01 µM, first compound 0.001 µM",21.8%
same,"viability, T/C","second compound 0.01 µM, first compound 0.00316 µM",17.9%
same,"viability, T/C","second compound 0.01 µM, first compound 0.01 µM",14.4%
same,"viability, T/C",[3],10.7%
same,"viability, T/C",[4],6.76%
same,"viability, T/C","second compound 0.0316 µM, first compound 0.000316 µM",22.7%
same,"viability, T/C","second compound 0.0316 µM, first compound 0.001 µM",17.5%
same,"viability, T/C","second compound 0.0316 µM, first compound 0.00316 µM",19.2%
same,"viability, T/C","second compound 0.0316 µM, first compound 0.01 µM",14.4%
same,"viability, T/C",[5],10.2%
same,"viability, T/C",[6],7.17%
same,"viability, T/C","second compound 0.1 µM, first compound 0.000316 µM",22.1%
same,"viability, T/C","second compound 0.1 µM, first compound 0.001 µM",18.2%
same,"viability, T/C","second compound 0.1 µM, first compound 0.00316 µM",19.4%
same,"viability, T/C","second compound 0.1 µM, first compound 0.01 µM",11.9%
same,"viability, T/C",[7],10.1%
same,"viability, T/C",[8],7.39%
same,"viability, T/C","second compound 0.316 µM, first compound 0.000316 µM",19.4%
same,"viability, T/C","second compound 0.316 µM, first compound 0.001 µM",18%
same,"viability, T/C","second compound 0.316 µM, first compound 0.00316 µM",17.8%
same,"viability, T/C","second compound 0.316 µM, first compound 0.01 µM",14.7%
same,"viability, T/C",[9],9.18%
same,"viability, T/C",[10],8.16%
same,"viability, T/C","second compound 1 µM, first compound 0.000316 µM",19.5%
same,"viability, T/C","second compound 1 µM, first compound 0.001 µM",22.9%
same,"viability, T/C","second compound 1 µM, first compound 0.00316 µM",16.6%
same,"viability, T/C","second compound 1 µM, first compound 0.01 µM",13.4%
same,"viability, T/C",[11],11.6%
same,"viability, T/C",[12],8.02%
